Values quoted from earlier work, collected in patent US20240139133A1, “TOPICAL NAPROXEN FORMULATIONS AND THEIR USE” (SMARTECH TOPICAL, INC., priority 2021, published 2024).

Conditions: printed as a negative log P

log P: ~-0.5
Compound: CCOCCOCCO [Transcutol, 2-(2-Ethoxyethoxy)ethanol]
